According to patent US20210380988A1, “Reducing Prominin2-Mediated Resistance to Ferroptotic Cell Death” (University of Massachusetts, priority 2020, published 2021):
Where a SMILES comes first, the peptide text is derived from it. The star is where a group is joined. Cbz = O=C(OCc1ccccc1)*; CH2F = FC*

Tests used:
Format in all cases: cell-based
MCF10A cells [1] = assay: Survival of adherent cells in response to GPX4 inhibition (crystal violet); conditions: for sensitivity to compound in prominin2 knock-down cells compared to control cells: prominin2 siRNA 48 hours, compound 24 hrs
Description: (§1) Cell-based assays: Assays to assess survival in response to matrix detachment were performed as described (Brown C W, 2017). To assay survival in response to GPX4 inhibition, adherent cells in 96 well plates (1.0×10^4 per well) were treated with either DMSO, RSL3, ML210, FIN56 or erastin for 24 hrs with and without ferrostatin-1 or DFO. Subsequently, cells were fixed in 4% paraformaldehyde (Boston BioProducts), stained with crystal violet (Sigma) and read on a microplate reader (Beckman Colter) at absorbance 595. Absorbances were normalized to DMSO.

Hs578t cells [2] = assay: as above; conditions: for sensitivity to compound in prominin2 knock-down cells compared to control cells: prominin2 siRNA 48 hours, compound 24 hrs
Description: as §1

prominin2 [3] = assay: PROM2 mRNA (qPCR) and prominin2 protein (immunoblot) expression in MCF10A cells; conditions: for prominin2 mRNA and protein expression: adherent MCF10A, 2 hrs, 5 μM RSL3, 250 μM H2O2
Description: (§2) Biochemical experiments: Immunoblotting and qPCR were performed as described (Brown C W, 2017). Briefly, for immunoblotting, cell lysates were extracted using radioimmunoprecipitation assay (RIPA) buffer (Boston Bioproducts). Extracts were separated by SDS PAGE using the specified antibodies. Immunoprecipitation was performed on lysates isolated using NP-40 buffer (Boston Bioproducts). Lysates were pre-cleared prior to overnight incubation with the primary antibody and protein A agarose beads (Sigma-Aldrich). Immune complexes were separated by SDS PAGE and immunoblotted as described in figure legends. RNA was isolated from cells (BioBasic) and cDNA was generated using the All in One cDNA Synthesis SuperMix (BioScript Solutions). qPCR was performed using a SYBR green master mix (BioScript Solutions). Sequences for primers used were as follows: […]

prominin2 [4] = assay: PROM2 mRNA (qPCR) and prominin2 protein (immunoblot) expression in Hs578t cells; conditions: adherent Hs578t, 2 hrs; 5 μM RSL3, 250 μM H2O2
Description: as §2

MDA-MB-231 cells [5] = assay: Survival of adherent cells in response to GPX4 inhibition (crystal violet); conditions: for cell death in response to compound with exogenous prominin2 expression: MDA-MB-231, prominin2 expression construct vs vector control
Description: as §1

MCF10A cells [6] = assay: Survival in response to matrix (ECM) detachment; conditions: 24 hrs, ferrostatin-1 (2 μM), ZVAD-fmk (25 μM), deferoxamine
Description: as §1

Hs578t cells [7] = assay: Survival in response to matrix (ECM) detachment; conditions: 24 hrs, ferrostatin-1 (2 μM), ZVAD-fmk (25 μM), deferoxamine
Description: as §1

HSF1 [8] = assay: HSF1 mRNA, protein, S326 phosphorylation and nuclear localization in MCF10A cells; conditions: for time after treatment at which the increase in HSF1 mRNA peaked: 25 uM 4HNE or 5 uM RSL3; for expression of HSF1 mRNA by qPCR: 25 uM 4HNE or 5 uM RSL3, 0 to 120 minutes; for HSF1 protein expression and phosphorylation at S326: after 60 minutes of exposure
Description: as §2
(§3) Immunofluorescence microscopy: For adherent cells, 8 well chamber slides (Mattek) were coated with 1 μg/mL laminin (Invitrogen). Cells (5.0×10^4 per well) were plated overnight and then treated for two hours with either DMSO or RSL3, fixed in 4% paraformaldehyde and permeabilized in 0.1% Triton (JT Baker). Slides were blocked in 0.5% BSA (Boston Bioproducts), incubated in antibody overnight at 4° C., washed in PBS and incubated in secondary antibody for 1 hr at room temperature. Slides were washed and mounted in Vectashield with DAPI (Vector Labs). For ECM-detached experiments, cells were trypsinized and plated (5.0×10^5 per well) in 60 mm low-adherent plates (Sumitomo Bakelite) for two hr, collected and spun down prior to being fixed and stained as described above. Slides were imaged on a Zeiss or a Nikon A-1 confocal microscope.

HSF1 [9] = assay: as above; conditions: after 60 minutes of exposure
MCF10A and Hs578t cells = assay: Exosome isolation by ultracentrifugation (protein, ICP-MS iron)
Description: Exosome isolation: Cells were cultured for 24 hrs in their respective media containing extracellular vesicle (EV) free serum and treated with RSL3 for 24 hours. Culture supernatants were centrifuged at 4° C. at 1000 RPM for 5 min, 3000 RPM for 10 min, 4000 RPM for 30 min prior to ultracentrifugation at 22,000 RPM for 140 min at 4° C. Pellets were resuspended in cold PBS and centrifuged again under the same conditions. For immunoblotting, pellets were lysed in RIPA buffer, centrifuged at 10,000 RPM for 15 min and protein concentration was determined by Bradford Assay (BioRad). For TEM, PBS was removed and 20 μL of the exosome preparation was fixed and processed. For ICP-mass spec, exosome-containing pellet was resuspended in 0.5 mL PBS and centrifuged in a speed-vac at 45° C. Samples were sent to the UMASS Mass Spectrometry Core where they were digested in 100 μL HNO3, heated to 65° C. for 20 min and diluted to 2 mL with ddH2O before analysis.

Hs578t cells [10] = assay: Multivesicular body formation (TSG101 immunofluorescence); conditions: RSL3 2 hrs
Description: as §3

MCF10A cells [11] = assay: Multivesicular body formation (TSG101 immunofluorescence, TEM)
Description: as §3
Transmission Electron Microscopy: Adherent siControl and siProminin2 cells were treated with DMSO or RSL3 (5 μM) for two hr. ECM-detached siControl and siProminin2 cells were maintained for 2 hrs in low-adherence plates. All cells were fixed by adding 2.5% glutaraldehyde (v/v) in 0.1 M Na cacodylate buffer (pH 7.2) and processed for TEM. The samples were examined on a FEI Tecnai 12 BT transmission electron microscope using 100 Kv accelerating voltage. Images were captured using a Gatan TEM CCD camera.

prominin1 (CD133) = assay: PROM1 expression by qPCR; conditions: MCF10A and Hs578t cells, 5 μM RSL3, 2 hrs (FIG. 8A)
Description: as §2

MCF10A cells [12] = assay: Total free iron (Iron Assay Kit)
Description: (§4) Total free iron was quantified using the Iron Assay Kit (Abcam) per manufacturer's specifications. Briefly, adherent cells in 10 cm plates (1.0×10^6/well) were treated with either DMSO or RSL3 for 2 hrs, lysed and supernatant was reduced using the provided iron reducer before the mixture was reacted with an iron probe. Plates were read at 595 nm and total iron concentration was obtained using an iron standard curve.

MDA-MB-231 cells [13] = assay: Total free iron (Iron Assay Kit); conditions: MDA-MB-231 vector control, RSL3 2 hrs; prevented by prominin2 expression
Description: as §4

Hs578t cells [14] = assay: Total free iron (Iron Assay Kit)
Description: as §4

prominin2 [15] = assay: PROM2 mRNA (qPCR) and prominin2 protein (immunoblot) expression in MDA-MB-231 cells; conditions: adherent MDA-MB-231, RSL3 2 hrs
Description: as §2

SMILES: O=C(/C=C/c1ccc(/C=C/C(=O)Nc2ccc(C3=NCCN3)cc2)cc1)Nc1ccc(C2=NCCN2)cc1 [GW4869]
- sensitivity of cells to RSL3 on inhibition of exosome release (MCF10A cells [1]; MCF10A, RSL3 (5 μM) and GW4869 (20 μM), 24 hrs): increased the sensitivity
- sensitivity of cells to RSL3 on inhibition of exosome release (Hs578t cells [2]; Hs578t, RSL3 (5 μM) and GW4869 (20 μM), 24 hrs): increased the sensitivity

SMILES: C#Cc1cccc(Nc2ncnc3cc(OCCOC)c(OCCOC)cc23)c1 [erlotinib]
- sensitivity to RSL3 on co-treatment with other therapeutics (MCF10A cells [1]; MCF10A, 100 nM Dasatinib or 25 uM Erlotinib with RSL3, 24 hours): did not significantly improve sensitivity

SMILES: OO [H2O2]
- prominin2 mRNA and protein expression (prominin2 [3]): did not increase prominin2 expression
- prominin2 mRNA and protein expression (prominin2 [4]): did not increase prominin2 expression

SMILES: O=S(=O)(NC1CCCCC1)c1ccc2c(c1)C(=NO)c1cc(S(=O)(=O)NC3CCCCC3)ccc1-2 [FIN56]
- sensitivity to compound in prominin2 knock-down cells compared to control cells (MCF10A cells [1]; MCF10A): significant increase in sensitivity
- cell death in response to compound with exogenous prominin2 expression (MDA-MB-231 cells [5]): sufficient to inhibit cell death
- sensitivity to compound in prominin2 knock-down cells compared to control cells (Hs578t cells [2]; Hs578t): significant increase in sensitivity

SMILES: COC(=O)C[C@H](NC(=O)[C@H](C)NC(=O)[C@@H](NC(=O)OCc1ccccc1)C(C)C)C(=O)CF [ZVAD-fmk] (Cbz-Val-Ala-Asp(OMe)-CH2F)
- rescue of cell viability of ECM-detached prominin2-silenced cells by co-treatment (MCF10A cells [6]): not
- rescue of cell viability of ECM-detached prominin2-silenced cells by co-treatment (Hs578t cells [7]): not

SMILES: Cc1ccc(-n2nc(C(C)(C)C)cc2NC(=O)Nc2ccc(OCCN3CCOCC3)c3ccccc23)cc1 [BIRB]
- induction and phosphorylation of HSF1 following 4HNE or RSL3 treatment (HSF1 [8]; 10 uM BIRB pretreatment): prevented the induction and phosphorylation of HSF1
- increase in HSF1 expression and nuclear localization, treatment prior to 4HNE or RSL3 (HSF1 [8]; 10 uM BIRB pretreatment 15 minutes): significantly reduced the increase in expression and nuclear localization
- 4HNE- or RSL3-driven increase in HSF1 expression on p38 inhibition (HSF1 [8]; pre-treated with 10 uM BIRB, after 30 minutes of treatment): reduced the 4HNE- or RLS3-driven increase in HSF1 to basal levels

SMILES: CCOC(=O)c1ccc(NC2CCCCC2)c(N)c1 [ferrostatin-1]
- rescue of cell death triggered by GPX4 inhibition in FTH1 and FTL knock-down cells (MCF10A cells [1]; MCF10A, RSL3 24 hrs, 100 uM deferoxamine): rescued
- rescue of loss of cell viability in prominin2-depleted cells (MCF10A cells [1]; MCF10A, RSL3 (5 μM) and ferrostatin-1 (2 μM), 24 hrs): completely rescued
- rescue of RSL3-induced cell death in cells with diminished TSG101 expression (MCF10A cells [1]; MCF10A, TSG101 siRNA 48 hours, RSL3 and ferrostatin-1 24 hrs (FIG. 4C)): rescued
- rescue of cell death triggered by GPX4 inhibition in FTH1 and FTL knock-down cells (Hs578t cells [2]; Hs578t, RSL3 24 hrs, 100 uM deferoxamine): rescued
- rescue of loss of cell viability in prominin2-depleted cells (Hs578t cells [2]; Hs578t, RSL3 (5 μM) and ferrostatin-1 (2 μM), 24 hrs): completely rescued
- rescue of cell viability of ECM-detached prominin2-silenced cells by co-treatment (MCF10A cells [6]): rescued
- rescue of cell viability of ECM-detached prominin2-silenced cells by co-treatment (Hs578t cells [7]): rescued

SMILES: Cl.N [NH4Cl]
- effect on cell survival following GPX4 inhibition (Hs578t cells [2]; Hs578t, 20 mM NH4Cl pre-treatment 60 min, then with RSL3 24 hrs (FIG. 10D)): had no effect on cell survival

SMILES: CCCCCC(O)/C=C/C=O (centres unmarked) [4HNE, 4-hydroxynonenal]
- PROM2 transcription (prominin2 [3]; mechanism dependent upon HSF1, cell line not named at b183): stimulates PROM2 transcription
- time after treatment at which the increase in HSF1 mRNA peaked (HSF1 [8]): 15 min
- expression of HSF1 mRNA by qPCR (HSF1 [8]): significant increase
- HSF1 protein expression and phosphorylation at S326 (HSF1 [8]): increased HSF1 protein expression levels as well as phosphorylation at S326
- HSF1 expression and nuclear localization (HSF1 [9]): increased

SMILES: COC(=O)c1ccc([C@@H]2c3[nH]c4ccccc4c3C[C@@H](C(=O)OC)N2C(=O)CCl)cc1 [RSL3]
- prominin2 mRNA and protein expression (prominin2 [3]): increased prominin2 mRNA and protein expression
- time after treatment at which the increase in HSF1 mRNA peaked (HSF1 [8]): 15 min
- expression of HSF1 mRNA by qPCR (HSF1 [8]): significant increase
- HSF1 protein expression and phosphorylation at S326 (HSF1 [8]): increased HSF1 protein expression levels as well as phosphorylation at S326
- protein in the exosome preparation (MCF10A and Hs578t cells; 1 μM RSL3, 24 hours, exosomal protein in control cells not detected): significant amount of protein
- iron in exosomes by ICP-MS (MCF10A and Hs578t cells; exosomes harvested from RSL3-treated cells): 3400 ng per exosome collection sample
- prominin2 mRNA and protein expression (prominin2 [4]): increased prominin2 mRNA and protein expression
- HSF1 expression and nuclear localization (HSF1 [9]): increased
- TSG101-positive structures vs vehicle control-treated cells (Hs578t cells [10]): more TSG101-positive structures
- TSG101-positive structures vs vehicle control-treated cells (MCF10A cells [11]; RSL3 2 hrs): more TSG101-positive structures
- MVBs per cell by TEM vs control cells (MCF10A cells [11]; RSL3, effect not observed in prominin2-silenced cells): significantly more MVBs per cell
- expression of prominin1 (CD133) (prominin1 (CD133)): not altered significantly
- sensitivity to compound in prominin2 knock-down cells compared to control cells (MCF10A cells [1]; MCF10A): significant increase in sensitivity
- RSL3 concentrations at which cells were resistant to RSL3-induced cell death (MCF10A cells [1]; adherent MCF10A, 24 hrs, FIG. 1F): up to 2.5
- cell death in response to compound with exogenous prominin2 expression (MDA-MB-231 cells [5]): sufficient to inhibit cell death
- RSL3 concentrations by which cells were killed (MDA-MB-231 cells [5]; adherent MDA-MB-231, 24 hrs, FIG. 1F): ≥ 0.5 µM
- sensitivity to compound in prominin2 knock-down cells compared to control cells (Hs578t cells [2]; Hs578t): significant increase in sensitivity
- RSL3 concentrations at which cells were resistant to RSL3-induced cell death (Hs578t cells [2]; adherent Hs578t, 24 hrs, FIG. 1F): up to 2.5
- free iron concentration, RSL3-treated vs control cells (MCF10A cells [12]; 5 μM RSL3, 2 hrs): no significant difference
- concentration of free iron following RSL3 treatment when either prominin2 or both FTH1 and FTL were silenced (MCF10A cells [12]; siRNA 48 hrs, RSL3 2 hrs): increase
- free iron in response to RSL3 in control cells (MDA-MB-231 cells [13]): increase in iron
- free iron concentration, RSL3-treated vs control cells (Hs578t cells [14]; 5 μM RSL3, 2 hrs): no significant difference
- concentration of free iron following RSL3 treatment when either prominin2 or both FTH1 and FTL were silenced (Hs578t cells [14]; siRNA 48 hrs, RSL3 2 hrs): increase
- induction of prominin2 (prominin2 [15]): did not induce prominin2
